Laboratory results as given in the supplement of paper PMC4862054.

Assays:
Conditions in all cases: incubation time: 72 h
BT-549 [1] = assay: normalised viability (% of control), CellTiter-Blue; higher = more viable cells (100 = DMSO, 0 = benzethonium chloride kill control)
Protocol: (§1)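 DSRT, CellTiter-Blue viability, 72 h incubation. Signal is normalised to DMSO and benzethonium chloride controls. Value is the normalised response at dose 1.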

CAL-120 [2] = assay: as above
Protocol: as §1

CAL-148 [3] = assay: as above
Protocol: as §1

CAL-85-1 [4] = assay: as above
Protocol: as §1

DU-4475 = assay: as above
Protocol: as §1

HCC1143 = assay: as above
Protocol: as §1

HCC1599 = assay: as above
Protocol: as §1

HCC1937 [5] = assay: as above
Protocol: as §1

HDQ-P1 = assay: as above
Protocol: as §1

Hs578T [6] = assay: as above
Protocol: as §1

MDA-MB-231 [7] = assay: as above
Protocol: as §1

MDA-MB-436 = assay: as above
Protocol: as §1

MDA-MB-453 = assay: as above
Protocol: as §1

MDA-MB-468 [8] = assay: as above
Protocol: as §1

MFM-223 = assay: as above
Protocol: as §1

SK-BR-3 [9] = assay: as above
Protocol: as §1

BT-474 = assay: drug sensitivity score (DSS), CellTiter-Glo (DSS (AUC-based score)); higher = stronger drug effect (viability inhibition or cytotoxicity); extreme values may be limits of the assay
Method in brief: (§2)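 The drug sensitivity score reflects the area under a fitted dose-response curve. To obtain it, breast cancer cells in 20 µl suspension were seeded into 384-well plates containing compound at 5 concentrations, 10-fold apart over a compound-specific 10,000-fold range, and incubated 72 h. CellTox Green fluorescence (485/520 nm) was read first and CellTiter-Glo luminescence second, after 10 min at room temperature. Each plate was normalised to 0.1 % DMSO and a positive kill control.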

BT-549 [10] = assay: as above
Method in brief: as §2

CAL-120 [11] = assay: as above
Method in brief: as §2

CAL-148 [12] = assay: as above
Method in brief: as §2

CAL-51 = assay: as above
Method in brief: as §2

CAL-85-1 [13] = assay: as above
Method in brief: as §2

HCC1937 [14] = assay: as above
Method in brief: as §2

Hs578T [15] = assay: as above
Method in brief: as §2

MDA-MB-231 [16] = assay: as above
Method in brief: as §2

MDA-MB-468 [17] = assay: as above
Method in brief: as §2

SK-BR-3 [18] = assay: as above
Method in brief: as §2

| Compound | normalised viability (BT-549 [1]; 1 nM) [%] | normalised viability (CAL-120 [2]; 1 nM) [%] | normalised viability (CAL-148 [3]; 1 nM) [%] | normalised viability (CAL-85-1 [4]; 1 nM) [%] | normalised viability (DU-4475; 1 nM) [%] | normalised viability (HCC1143; 1 nM) [%] | normalised viability (HCC1599; 1 nM) [%] | normalised viability (HCC1937 [5]; 1 nM) [%] | normalised viability (HDQ-P1; 1 nM) [%] | normalised viability (Hs578T [6]; 1 nM) [%] | normalised viability (MDA-MB-231 [7]; 1 nM) [%] | normalised viability (MDA-MB-436; 1 nM) [%] | normalised viability (MDA-MB-453; 1 nM) [%] | normalised viability (MDA-MB-468 [8]; 1 nM) [%] | normalised viability (MFM-223; 1 nM) [%] | normalised viability (SK-BR-3 [9]; 1 nM) [%] | drug sensitivity score (BT-474) | drug sensitivity score (BT-549 [10]) | drug sensitivity score (CAL-120 [11]) | drug sensitivity score (CAL-148 [12]) | other results |
| --- | --- | --- | --- | --- | --- | --- | --- | --- | --- | --- | --- | --- | --- | --- | --- | --- | --- | --- | --- | --- | --- |
| COc1cc2nccc(Oc3ccc(NC(=O)Nc4cc(C)on4)c(Cl)c3)c2cc1OC [Tivozanib] | 81.1 | 106 | 103 | 114 | 102 | 103 | 115 | 92.5 | 97.6 | 103 | 88 | 102 | 97.4 | 98.3 | 100 | 102 | 0 | 0 | 0 | 0 | drug sensitivity score (CAL-51): 0; drug sensitivity score (CAL-85-1 [13]): 0; drug sensitivity score (HCC1937 [14]): 1.42; drug sensitivity score (Hs578T [15]): 0; drug sensitivity score (MDA-MB-231 [16]): 2.77; drug sensitivity score (MDA-MB-468 [17]): 0; drug sensitivity score (SK-BR-3 [18]): 0 |
| Nc1nc(F)nc2c1ncn2[C@@H]1O[C@H](CO)[C@@H](O)[C@@H]1O [Fludarabine] | 110 | 83 | 81.9 | 92.8 | 101 | 86.8 | 92.6 | 105 | 134 | 109 | 89.1 | 90.5 | 102 | 91.2 | 101 | 98.7 | 0 | 0.896 | 0.352 | 0 | drug sensitivity score (CAL-51): 0; drug sensitivity score (CAL-85-1 [13]): 0.486; drug sensitivity score (HCC1937 [14]): 0; drug sensitivity score (Hs578T [15]): 0; drug sensitivity score (MDA-MB-231 [16]): 0; drug sensitivity score (MDA-MB-468 [17]): 0; drug sensitivity score (SK-BR-3 [18]): 0 |
| O=C(Cc1ccc(-c2ccc(OCCN3CCOCC3)cc2)cn1)NCc1ccccc1 [KX2-391] | 124 | 93.8 | 107 | 84.6 | 103 | 92.7 | 85.8 | 93.7 | 138 | 130 | 92.8 | 89 | 116 | 113 | 91.7 | 105 | 12.8 | 16.3 | 11 | 16.9 | drug sensitivity score (CAL-51): 25.9; drug sensitivity score (CAL-85-1 [13]): 18.5; drug sensitivity score (HCC1937 [14]): 8.24; drug sensitivity score (Hs578T [15]): 23.2; drug sensitivity score (MDA-MB-231 [16]): 14.1; drug sensitivity score (MDA-MB-468 [17]): 20; drug sensitivity score (SK-BR-3 [18]): 27.5 |
| O=C(O)C(=O)O.[NH-][C@@H]1CCCC[C@H]1[NH-].[Pt+2] [Oxaliplatin] | 89 | 84.8 | 109 | 86.7 | 99.8 | 93 | 93 | 84 | 130 | 96.7 | 101 | 106 | 100 | 109 | 97.1 | 91 | 0 | 0 | 0 | 0 | drug sensitivity score (CAL-51): 0; drug sensitivity score (CAL-85-1 [13]): 0; drug sensitivity score (HCC1937 [14]): 0; drug sensitivity score (Hs578T [15]): 0; drug sensitivity score (MDA-MB-231 [16]): 0; drug sensitivity score (MDA-MB-468 [17]): 0; drug sensitivity score (SK-BR-3 [18]): 0 |
| O=C(/C=C/c1cccnc1)NCCCCC1CCN(C(=O)c2ccccc2)CC1 [FK-866] |  |  |  |  |  |  |  |  |  |  |  |  |  |  |  |  |  |  |  |  | normalised viability (BT-549 [1]; 0.1 nM): 97.3%; normalised viability (CAL-120 [2]; 0.1 nM): 106%; normalised viability (CAL-148 [3]; 0.1 nM): 110%; normalised viability (CAL-85-1 [4]; 0.1 nM): 85.7%; normalised viability (DU-4475; 0.1 nM): 102%; normalised viability (HCC1143; 0.1 nM): 97.5%; normalised viability (HCC1599; 0.1 nM): 105%; normalised viability (HCC1937 [5]; 0.1 nM): 107%; normalised viability (HDQ-P1; 0.1 nM): 105%; normalised viability (Hs578T [6]; 0.1 nM): 105%; normalised viability (MDA-MB-231 [7]; 0.1 nM): 96.6%; normalised viability (MDA-MB-436; 0.1 nM): 107%; normalised viability (MDA-MB-453; 0.1 nM): 103%; normalised viability (MDA-MB-468 [8]; 0.1 nM): 106%; normalised viability (MFM-223; 0.1 nM): 105%; normalised viability (SK-BR-3 [9]; 0.1 nM): 94.4% |
| NCCCNCCSP(=O)(O)O [Amifostine] | 98 | 73.3 | 103 | 85.2 | 91.6 | 81.4 | 110 | 91.8 | 98.3 | 107 | 80 | 102 | 97.4 | 111 | 76.4 | 91.7 |  |  |  |  |  |
| Cc1cnc(NC(=O)Nc2cc(Br)c(C)cc2OC[C@@H]2CNCCO2)cn1 |  |  |  |  |  |  |  |  |  |  |  |  |  |  |  |  |  |  |  |  | normalised viability (BT-549 [1]; 0.1 nM): 87.9%; normalised viability (CAL-120 [2]; 0.1 nM): 98.6%; normalised viability (CAL-148 [3]; 0.1 nM): 99.8%; normalised viability (CAL-85-1 [4]; 0.1 nM): 96.7%; normalised viability (DU-4475; 0.1 nM): 108%; normalised viability (HCC1143; 0.1 nM): 115%; normalised viability (HCC1599; 0.1 nM): 114%; normalised viability (HCC1937 [5]; 0.1 nM): 93.6%; normalised viability (HDQ-P1; 0.1 nM): 84.2%; normalised viability (Hs578T [6]; 0.1 nM): 106%; normalised viability (MDA-MB-231 [7]; 0.1 nM): 93.3%; normalised viability (MDA-MB-436; 0.1 nM): 119%; normalised viability (MDA-MB-453; 0.1 nM): 99.5%; normalised viability (MDA-MB-468 [8]; 0.1 nM): 110%; normalised viability (MFM-223; 0.1 nM): 102%; normalised viability (SK-BR-3 [9]; 0.1 nM): 91.2% |
| CC(=O)Nc1cccc(-n2c(=O)n(C3CC3)c(=O)c3c(Nc4ccc(I)cc4F)n(C)c(=O)c(C)c32)c1 |  |  |  |  |  |  |  |  |  |  |  |  |  |  |  |  |  |  |  |  | normalised viability (BT-549 [1]; 0.025 nM): 104%; normalised viability (CAL-120 [2]; 0.025 nM): 104%; normalised viability (CAL-148 [3]; 0.025 nM): 107%; normalised viability (CAL-85-1 [4]; 0.025 nM): 107%; normalised viability (DU-4475; 0.025 nM): 105%; normalised viability (HCC1143; 0.025 nM): 102%; normalised viability (HCC1599; 0.025 nM): 104%; normalised viability (HCC1937 [5]; 0.025 nM): 93.7%; normalised viability (HDQ-P1; 0.025 nM): 105%; normalised viability (Hs578T [6]; 0.025 nM): 113%; normalised viability (MDA-MB-231 [7]; 0.025 nM): 105%; normalised viability (MDA-MB-436; 0.025 nM): 101%; normalised viability (MDA-MB-453; 0.025 nM): 107%; normalised viability (MDA-MB-468 [8]; 0.025 nM): 112%; normalised viability (MFM-223; 0.025 nM): 105%; normalised viability (SK-BR-3 [9]; 0.025 nM): 135% |
